From US20240109855A1, “ANTI-QUORUM SENSING, ANTI-BIOFILM, AND INFLAMMATION ATTENUATING COMPOUNDS, COMPOSITIONS, AND METHODS OF USING SAME” (priority 2021, published 2024)
“Also recorded” adds a separate entry of the source.

What was measured:
[1] = test system: Chromobacterium violaceum (CV026); assay: Quorum sensing inhibition test with bio-reporter CV026 (TLC overlay); assay type: cell-based; as to Degree of quorum sensing inhibition (QSI), CV026: key: −: no inhibition; +: low inhibition; ++: medium inhibition; +++: strong inhibition
Method in brief: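 Compounds (40 mM in acetonitrile, 20 μl) were spotted on TLC and overlaid with soft agar reporter cultures, incubated overnight at 30 °C. CV026 was in LB with 500 nM 3-oxo-C6 (purple pigment), and KYC55 was in AT medium with 5 nM 3-oxo-C8 and 60 μg/ml X-gal (blue). Inhibition zone diameter was measured.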

[2] = test system: quorum sensing (CV026 and KYC55); assay: Quorum sensing inhibition, overall statement over the bio-reporter bacteria; assay type: cell-based
Method in brief: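 Compounds (20 μl of 40 mM acetonitrile stock) were spotted on TLC plates overlaid with reporter in soft agar: CV026 with 500 nM 3-oxo-C6 (purple pigment) or KYC55 with 5 nM 3-oxo-C8 and 60 μg/ml X-gal (blue pigment). After overnight incubation at 30 °C, the pigment-free inhibition zone was measured.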

[3] = test system: NF-kB; assay: NF-kB-luciferase reporter gene assay in L428 cells; assay type: cell-based, human; details: Table 6 summary; also: key: +: active; −: inactive
Method in brief: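 L428 cells stably carrying NF-kB-luciferase reporter (5×10^5/well, triplicate) exposed 2 h to compounds or DMSO. Lysate luminescence normalized to Bradford protein and to vehicle, reported as % NF-kB activation; mean+SD, ≥3 repeats.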

[4] = test system: pyocyanin; assay: Pyocyanin secretion by P. aeruginosa; assay type: cell-based; details: cell-free culture medium, spectrometry
Procedure: (§1) FIGS. 14A-14B include vertical bar graphs showing that PL-18 inhibition effects on secretion of virulence factors by P. aeruginosa. (14A) Pyocyanin was extracted in the chloroform-HCl method and measured in a plate-reader at 380 nm. (14B) Determination of rhamnolipids content was measured at 570 nm of the cell-free supernatant after adjustment to pH-2. All results were normalized and compere to the control group-DMSO 0.16%. Mean±SD, One-way ANOVA followed by Dunett's multiple comparisons test (p-values *≤0.0332, ***≤0.0002). N=9 (in three independent experiments).
(§2) To test whether PL-18 inhibits virulence effectors secreted by P. aeruginosa, the relative abundance of the virulence factors pyocyanin and rhamnolipids in the bacterial cell-free culture medium was determined by spectrometry.

[5] = test system: rhamnolipids; assay: Rhamnolipids secretion by P. aeruginosa; assay type: cell-based; details: cell-free culture medium, spectrometry
Procedure: as §1, §2

[6] = test system: elastase; assay: Elastase secretion by P. aeruginosa; assay type: cell-based; details: data not shown
[7] = test system: P. aeruginosa biofilm; assay: P. aeruginosa biofilm formation under flow conditions (CLSM, IMARIS); assay type: cell-based
Procedure: FIGS. 15A-15B include fluorescent micrographs and a vertical bar graph showing that Pl-18 inhibits P. aeruginosa biofilm formation. The biofilm was grown under continuous flow conditions for 72 hr with 10 μM, 40 μM PL-18 or 0.04% DMSO. CLSM images visualize viable bacteria stained green and dead bacteria red using the BacLight® Dead/Live Kit. Scanned areas were 318 μm×318 μm. (15A) IMARIS images. Scale bar is 50 μm. (15B) A graph showing the mean±SD of the biofilm volume generated from three independent sets of flow-cell experiments. Two-way ANOVA Bonferroni's multiple comparisons test, 95% confidence interval (p-values ***≤0.0002).
The anti-biofilm activity of PL-18 was tested in flow conditions for 72 hours. The biofilm was visualized by CLSM and quantified using the IMARIS software.

COc1cc(/C=C/C(=O)N2CCC=CC2=O)cc(O)c1O [PL-18, Dihydroxy piperlongumine]
Degree of quorum sensing inhibition (QSI), CV026 ([1]; Table 2, piperlongumine derivatives): ++ | QSI activity against CV026, in words ([1]; running text): moderate activity | QSI ([2]; Table 6 summary): + | QSI activity overall, in words ([2]; running text): moderate | Anti-inflammatory [3]: + | Inhibition of pyocyanin secretion [4]: inhibit both virulence factors in a dose dependent manner; also recorded: effectively attenuate | Inhibition of rhamnolipids secretion [5]: inhibit both virulence factors in a dose dependent manner; also recorded: effectively attenuate | Inhibition of elastase secretion [6]: not shown to inhibit; also recorded: not found to inhibit | inhibition at 40 µM ([7]; Pseudomonas aeruginosa, 72 h, read-out: Inhibition of P. aeruginosa biofilm formation): 85% | Attenuation of biofilm formation, in words ([7]; running text): effectively attenuate
